# Experimental data from patent US12559769B2, “Methods and compositions for the activation of tumor cytotoxicity via human gamma-delta t-cells” (priority 2017, dated 2026).
# Test system: Vγ9Vδ2 T cells
# Assay: Activation of Vγ9Vδ2 T cells (TNF-α, flow cytometry) by THP-1 monocytic leukemia cells co-cultured with expanded PBMC
# Format: cell-based, human
# Protocol: THP-1 cells (2×10^5 cells) were transduced with LV-control or LV-miR30 FDPS #1 (SEQ ID NO: 68) for 7 days. Cells were treated with or without 1 μM zoledronic acid. After 24 hours, the transduced THP-1 cells were co-cultured for 4 hours with 2×10^5 PBMC cells in 5 mL round-bottom tubes. The PBMC cells had been pre-stimulated with zoledronic acid plus IL-2 for at least 11 days to expand Vγ9Vδ2 T cells. After staining for Vγ9Vδ2 and TNF-α using fluorophore-conjugated anti TCR-Vδ2 and anti-TNF-α antibody, cells were analyzed via flow cytometry. Live cells were gated; Vδ2+ and TNF-α+ cells were identified on a dot blot. The activated cytotoxic Vγ9Vδ2 T cells appeared in the upper right quadrant of the flow cytograms. Without zoledronic acid, LV-control stimulated 2.44% of TNF-α expressing Vγ9Vδ2 T cells and LV-miR30 FDPS #1 (SEQ ID NO: 68) stimulated 28.4%. With zoledronic acid treatment, LV-control stimulated 23.8% of TNF-α expressing Vγ9Vδ2 T cells and LV-miR30 FDPS #1 (SEQ ID NO: 68) stimulated 61.4%.
# THP-1 cells were transduced with LV-control or LV-FDPS shRNA #4 (SEQ ID NO: 4) or Lv-GGPS1 shRNA #1 (SEQ ID NO: 70) for 3 days. Two days after transduction, cells were treated with or without 1 μM zoledronic acid. After 24 hours, the transduced THP-1 cells were co-cultured for 4 hours with 5×10^5 PBMC cells in a round bottom 96 well plate. The PBMC cells had been pre-stimulated with zoledronic acid plus IL-2 for at least 11 days to expand Vγ9Vδ2 T cells. After staining for Vγ9Vδ2 and TNF-α using fluorophore-conjugated anti TCR-Vδ2 and anti-TNF-α antibody, cells were analyzed via flow cytometry. Live cells were gated; Vδ2+ and TNF-α+ cells were identified on a dot blot. The activated cytotoxic Vγ9Vδ2 T cells appeared in the upper right quadrant of the flow cytograms. Without zoledronic acid, LV-control stimulated 1.33% of TNF-α expressing Vγ9Vδ2 T cells whereas Lv-FDPS shRNA #4 (SEQ ID NO: 4) stimulated 2.49%, Lv-GGPS1 #1 shRNA (SEQ ID NO: 70) stimulated 1.22%, and both combined stimulated 1.91%. With zoledronic acid treatment, Lv-control stimulated 5.74% of TNF-α expressing Vγ9Vδ2 T cells, whereas Lv-FDPS shRNA #4 (SEQ ID NO: 4) stimulated 10.8%, Lv-GGPS1 shRNA #1 (SEQ ID NO: 70) stimulated 4.5%, and both combined stimulated 11.5%.
# ZA is a small molecule inhibitor of squalene synthase in the pathway committed to sterol synthesis. THP-1 cells were treated with either the FDPS inhibitor Zol (10 μM), the famesyl transferase inhibitor FTI (10 μM), or ZA (50 μM) for 24 hours. THP-1 cells (2.5×10^5) were co-cultured with 2.5×10^5 PBMC cells in a round bottom 96 well plate for 5 hours. The PBMC cells had been pre-stimulated with zoledronic acid plus IL-2 for at least 11 days to expand Vγ9Vδ2 T cells. After staining for Vγ9Vδ2 and TNF-α using fluorophore-conjugated anti TCR-Vδ2 and anti-TNF-α antibody, cells were analyzed via flow cytometry. Live cells were gated; Vδ2+ and TNF-α+ cells were identified on a dot blot. The activated cytotoxic Vγ9Vδ2 T cells appeared in the upper right quadrant of the flow cytograms. Untreated cells stimulated 3.08% of TNF-α expressing Vγ9Vδ2 T cells, whereas zoledronic acid treatment stimulated 40.1%, FT1277 treatment stimulated 11.7%, and zaragozic acid stimulated 2.13%.
# [1] = Example 24, FIG. 28, THP-1 cells treated 10 μM for 24 hours, untreated cells 3.08%
SMILES,"percent of TNF-α expressing Vγ9Vδ2 T cells (Example 17, LV-control transduced THP-1 cells, 1 μM zoledronic acid) [%]","percent of TNF-α expressing Vγ9Vδ2 T cells (Example 21, Lv-control transduced THP-1 cells, 1 μM zoledronic acid) [%]",percent of TNF-α expressing Vγ9Vδ2 T cells [1] [%],"percent of TNF-α expressing Vγ9Vδ2 T cells (Example 24, FIG. 28, THP-1 cells treated 50 μM for 24 hours, untreated cells 3.08%) [%]"
O=P(O)(O)C(O)(Cn1ccnc1)P(=O)(O)O [zoledronic acid],23.8,5.74,40.1,
COC(=O)[C@H](CCSC)NC(=O)c1ccc(NC[C@@H](N)CS)cc1-c1ccccc1 [FT1277],,,11.7,
C=C(CC[C@]12O[C@H](C(=O)O)[C@@](O)(C(=O)O)[C@](C(=O)O)(O1)[C@H](OC(=O)/C=C/[C@@H](C)C[C@@H](C)CC)[C@H]2O)[C@@H](OC(C)=O)[C@H](C)Cc1ccccc1 [zaragozic acid],,,,2.13
